In one assay the target is T1, GRK2 (Homo sapiens, UniProt P25098).
T1 construct: purchased SignalChem A14-10G
T1 sequence (P25098 1-689): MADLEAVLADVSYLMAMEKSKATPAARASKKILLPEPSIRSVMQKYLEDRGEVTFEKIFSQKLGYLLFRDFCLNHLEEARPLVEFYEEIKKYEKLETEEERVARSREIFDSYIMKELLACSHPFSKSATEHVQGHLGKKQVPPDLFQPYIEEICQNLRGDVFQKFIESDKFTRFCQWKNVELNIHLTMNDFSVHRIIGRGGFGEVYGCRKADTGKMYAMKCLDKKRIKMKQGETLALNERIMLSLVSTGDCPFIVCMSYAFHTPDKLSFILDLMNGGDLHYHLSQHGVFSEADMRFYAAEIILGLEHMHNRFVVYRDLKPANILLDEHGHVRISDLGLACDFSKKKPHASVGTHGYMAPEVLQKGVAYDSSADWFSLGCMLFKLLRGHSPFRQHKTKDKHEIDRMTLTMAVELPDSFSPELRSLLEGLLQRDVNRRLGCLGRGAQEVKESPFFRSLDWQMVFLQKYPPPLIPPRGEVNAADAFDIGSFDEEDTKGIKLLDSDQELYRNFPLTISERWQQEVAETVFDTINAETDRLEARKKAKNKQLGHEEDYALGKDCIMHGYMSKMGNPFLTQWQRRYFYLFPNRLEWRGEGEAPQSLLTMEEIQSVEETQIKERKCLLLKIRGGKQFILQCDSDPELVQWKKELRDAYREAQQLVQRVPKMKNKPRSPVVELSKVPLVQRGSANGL
In words: ADPGlo GRK2 Inhibition Assay (Example 8). Type of assay: biochemical. In short, it runs like this:
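GRK2 (15 nM 2× enzyme solution) was preincubated 15 min with compound, then reacted 180 min at room temperature with 2× mix of 20 μM ATP plus GRKtide in HEPES pH 7.5, MgCl2, Tween-20, DTT. ADP was detected by ADP-Glo luminescence. Percent inhibition was normalised to enzyme and no-enzyme controls, with dose-response curves from threefold dilutions starting at 100 μM.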
Background: In ADP-Glo the light output rises with the ADP produced.

Assay [1] relates to PAXF1657 control empty vector cell line. In words: 7-day proliferation assay, PAXF1657 control empty vector cell line (Example 9). Type of assay: cell-based. The conditions noted are these: 168 h; Cell Line: PAXF1657 empty vector (EV) cell line; 7-day; read-out: C: 7-day proliferation assay: IC50 GeoMean. Here is the method:
In order to identify compounds specific for GRK2, we generated two isogenic cell line pairs of the pancreatic cancer cell line PAXF1657, a pair of cells stably overexpressing GRK2 cDNA or the control empty vector and a cell line pair of PAXF1657 GRK2 knockout clonal cells versus non-targeting control clonal cells.
Proliferation Assay: Cellular anti-proliferative activity of compounds was assessed by using the pancreatic cancer cell line, PAXF1657, stably overexpressing GRK2 cDNA or the control empty vector, as well as the parental urinary bladder cancer cell line, 5637. In addition, we also took advantage of GRK2 knockout cell lines that were generated via CRISPR. Cell lines were seeded into tissue culture treated, white-walled, 96-well plates at a density of 500 cells/well in RPMI1640 media supplemented with 10% H.I. FBS and penicillin/streptomycin. Plates were incubated overnight at 37° C., 5% CO2 to allow cells to adhere to the wells. GRK2 inhibitors were added to the cells using a 10-point dilution series with a final concentration ranging from 30 μM-0.0002 μM in 0.3% DMSO. At the time of compound addition, a set of plates, that were not treated with compounds, were collected and cell viability was measured using CellTiter-Glo (Promega). CellTiter-Glo reagent was added to the designed plates and luminescence was measuring using a Biotek Synergy plate reader. The compound treated cells were incubated for 3 days at 37° C., 5% CO2. The media was then aspirated from each well and replaced with fresh media containing GRK2 inhibitors. The compound treated cells were then incubated for an additional 4 days at 37° C., 5% CO2. Cell viability was assessed and at end of the 7-day compound treatment by CellTiterGlo.

Setting [2] is: ADPGlo GRK2 enzyme assay, read-out: A: Enzymatic GRK2: IC50 (nM) (Example 8).
[3] abbreviates: 7.5 nM GRK2, 10 μM ATP, ADP-Glo, read-out: GRK2 IC50 (nM) (Example 8).

Where two headings read alike, the source gives them in different places.

As for `COc1cccc([C@@H](C)NC(=O)c2cccc(NCc3nnc(-c4ccncc4)n3C)c2)c1`, the IC50 on GRK2 (setting [2]) is 7.61 nM; in assay [1], more than 30000 nM.

For the molecule `C[C@H](NC(=O)c1cccc(NCc2nnc(-c3ccncc3)n2C)c1)c1ncccc1Cl`, the IC50 is 2.97 nM on GRK2 (setting [2]) and more than 1850 nM in assay [1].

Take `C[C@@H](NC(=O)c1cccc(NCc2nnc(-c3ccncc3)n2C)c1)c1ncccc1Cl`: the IC50 is 11.4 nM at GRK2 (setting [2]) and more than 4780 nM in assay [1].

In the case of `COc1ncc(Br)cc1CNC(=O)c1cccc(NCc2nnc(-c3ccncc3)[nH]2)c1`, the figures for the IC50 (on GRK2 (setting [2]); in assay [1]) were 10.2 nM and 21700 nM, respectively.

As for `Cc1ccc(C#N)cc1CNC(=O)c1cccc(NCc2nnc(-c3ccncn3)n2CCO)c1`, the IC50 on GRK2 (setting [2]) was 3.22 nM; in assay [1] it was more than 30000 nM.

Consider `COc1ncc(Br)cc1CNC(=O)c1cccc(NCc2nnc(-c3ccncn3)n2CCO)c1`, for which the IC50 on GRK2 (setting [2]) was 4.12 nM; in assay [1] it was more than 30000 nM.

For `Cc1ccc(C#N)cc1CNC(=O)c1cccc(NCc2nnc(-c3ccncc3)n2CCO)c1`, the IC50 at GRK2 (setting [2]) was 4.82 nM; in assay [1], more than 4600 nM.

As for `COc1ncc(Br)cc1CNC(=O)c1cccc(NCc2nnc(-c3ccncc3)n2CCO)c1`, the IC50 on GRK2 (setting [2]) amounted to 7.15 nM; in assay [1], 15100 nM.

For `COc1cccc([C@H](C)NC(=O)c2cccc(NCc3nnc(-c4ccncc4)[nH]3)c2)c1`, the IC50 at GRK2 (setting [2]) is 17.5 nM; in assay [1] it was more than 30000 nM.

For the molecule `Cn1c(CNc2cccc(C(=O)N[C@@H]3CCOc4ccccc43)c2)nnc1-c1ccncn1`, the values for the IC50 (at GRK2 (setting [2]); in assay [1]) were 23 nM and 227 nM, respectively.

Regarding `Cc1cccnc1[C@H](C)NC(=O)c1cccc(NCc2nnc(-c3ccncn3)n2C)c1`, the results for the IC50 (on GRK2 (setting [2]); in assay [1]) were 15 nM and more than 30000 nM, respectively.

Regarding `Cc1cccnc1[C@@H](C)NC(=O)c1cccc(NCc2nnc(-c3ccncn3)n2C)c1`, the IC50 worked out at 26 nM on GRK2 (setting [2]) and 3790 nM in assay [1].

For the molecule `CN1CC[C@@H](NC(=O)c2cccc(NCc3nnc(-c4ccncn4)n3C)c2)c2ccccc21`, the IC50 at GRK2 (setting [2]) was 21 nM; in assay [1] it was more than 30000 nM.

In the case of `Cn1c(CNc2cccc(C(=O)N[C@H]3COCc4ccccc43)c2)nnc1-c1ccncn1`, the IC50 at GRK2 (setting [2]) is 66 nM; in assay [1], more than 11800 nM.

Turning to `Cn1c(CNc2cccc(C(=O)NC3COc4cc(F)ccc43)c2)nnc1-c1ccncn1` (stereo not shown), the IC50 at GRK2 (setting [2]) is 35.4 nM; in assay [1], 547 nM.

On to `COc1ccc(F)c(CNC(=O)c2cccc(NCc3nnc(-c4ccncn4)n3C)c2)c1`, for which the results for the IC50 (on GRK2 (setting [2]); in assay [1]) were 20 nM and 917 nM, respectively.

Consider `C#Cc1ccc(CNC(=O)c2cccc(NCc3nnc(-c4ccncn4)n3C)c2)c(F)c1`, for which the IC50 turned out to be 12 nM on GRK2 (setting [2]) and 413 nM in assay [1].

In the case of `Cn1c(CNc2cccc(C(=O)NC3CCS(=O)(=O)c4ccccc43)c2)nnc1-c1ccncn1` (stereo not shown), the values for the IC50 (at GRK2 (setting [2]); in assay [1]) were 18.2 nM and 2790 nM, respectively.

Regarding `CN1Cc2ccccc2C(NC(=O)c2cccc(NCc3nnc(-c4ccncn4)n3C)c2)C1=O` (stereo not shown), the IC50 was 63.5 nM on GRK2 (setting [2]) and more than 1900 nM in assay [1].

As for `COc1cccc([C@@H](C)NC(=O)c2cccc(NCc3nnc(-c4ccncn4)n3C)c2)c1` [compound 27], the IC50 on GRK2 (setting [3]) was found to be 12 nM.

As for `COc1cccc2c1CC[C@H]2NC(=O)c1cccc(NCc2nnc(-c3ccncn3)n2C)c1` [compound 30], on GRK2 (setting [3]), the IC50 worked out at 15 nM.

With `Cn1c(CNc2cccc(C(=O)N[C@@H]3COCc4ccccc43)c2)nnc1-c1ccncn1` [compound 31], the IC50 on GRK2 (setting [3]) turned out to be 22 nM.

Turning to `CC1Cc2cc(CNC(=O)c3cccc(NCc4nnc(-c5ccncn5)n4C)c3)ccc2O1` (stereo not shown) [compound 32], at GRK2 (setting [3]), the IC50 was determined as 22 nM.

Consider `Cn1ccnc1[C@@H](NC(=O)c1cccc(NCc2nnc(-c3ccncc3)[nH]2)c1)C1CC1` [compound 34], for which, on GRK2 (setting [3]), the IC50 amounted to 10 nM.

As for `Cc1cc2c(cc1CNC(=O)c1cccc(NCc3nnc(-c4ccncn4)n3C)c1)OCCO2` [compound 36], the IC50 at GRK2 (setting [3]) is 0.5 nM.

Turning to `Cc1cccc2ncc(CNC(=O)c3cccc(NCc4nnc(-c5ccncn5)n4C)c3)n12` [compound 37], at GRK2 (setting [3]), the IC50 came out at 0.79 nM.

On to `Cc1cccc(C(CO)NC(=O)c2cccc(NCc3nnc(-c4ccncn4)n3C)c2)c1` (stereo not shown) [compound 39], for which the IC50 on GRK2 (setting [3]) stood at 1.1 nM.

For `Cn1c(CNc2cccc(C(=O)NCc3ccc4nccn4c3)c2)nnc1-c1ccncn1` [compound 40], the IC50 at GRK2 (setting [3]) is 1.7 nM.

Consider `CCOc1ccc(C(CO)NC(=O)c2cccc(NCc3nnc(-c4ccncn4)n3C)c2)cn1` (stereo not shown) [compound 41], for which the IC50 at GRK2 (setting [3]) was found to be 1.8 nM.

On to `Cn1c(CNc2cccc(C(=O)NCc3ccc(-n4nccn4)cc3)c2)nnc1-c1ccncn1` [compound 42], for which the IC50 at GRK2 (setting [3]) was 2.1 nM.

With `Cn1c(CNc2cccc(C(=O)NCc3cccc(C#N)c3)c2)nnc1-c1ccncn1` [compound 43], the IC50 on GRK2 (setting [3]) was 2.7 nM.

For the molecule `Cc1ccc2ncc(CNC(=O)c3cccc(NCc4nnc(-c5ccncn5)n4C)c3)n2c1` [compound 44], the IC50 on GRK2 (setting [3]) was 2.8 nM.

`Cc1ccn2c(CNC(=O)c3cccc(NCc4nnc(-c5ccncn5)n4C)c3)cnc2c1` [compound 45]: the IC50 at GRK2 (setting [3]) worked out at 3 nM.

As to `Cc1ccc(C(CO)NC(=O)c2cccc(NCc3nnc(-c4ccncn4)n3C)c2)cc1` (stereo not shown) [compound 46], at GRK2 (setting [3]), the IC50 was determined as 3.3 nM.

As to `Cn1c(CNc2cccc(C(=O)NCc3cnccc3Cl)c2)nnc1-c1ccncn1` [compound 47], the IC50 at GRK2 (setting [3]) came out at 4.3 nM.

As to `COc1cccc(C(C)NC(=O)c2cccc(NCc3nnc(-c4ccncn4)n3C)c2)c1` (stereo not shown) [compound 48], the IC50 on GRK2 (setting [3]) came out at 4.4 nM.

In the case of `COc1cccc(C(CO)NC(=O)c2cccc(NCc3nnc(-c4ccncn4)n3C)c2)c1` (stereo not shown) [compound 49], at GRK2 (setting [3]), the IC50 amounted to 5.4 nM.

For `Cn1ccnc1C(NC(=O)c1cccc(NCc2nnc(-c3ccncc3)[nH]2)c1)C1CC1` (stereo not shown) [compound 50], the IC50 on GRK2 (setting [3]) came to 5.5 nM.

On to `Cn1nccc1CNC(=O)c1cccc(NCc2nnc(-c3ccncn3)n2C)c1` [compound 51], for which, at GRK2 (setting [3]), the IC50 worked out at 5.7 nM.

For `CC(NC(=O)c1cccc(NCc2nnc(-c3ccncn3)n2C)c1)c1c[nH]cn1` (stereo not shown) [compound 52], the IC50 on GRK2 (setting [3]) worked out at 5.7 nM.

With `CCS(=O)(=O)c1ccc(CNC(=O)c2cccc(NCc3nnc(-c4ccncn4)n3C)c2)cc1` [compound 53], the IC50 on GRK2 (setting [3]) was found to be 6.2 nM.

`Cn1c(CNc2cccc(C(=O)NCc3ccc(C#N)cc3)c2)nnc1-c1ccncn1` [compound 54]: on GRK2 (setting [3]), the IC50 was found to be 6.3 nM.

On to `Cn1c(CNc2cccc(C(=O)NCc3cnn(-c4ccccc4)n3)c2)nnc1-c1ccncn1` [compound 55], for which the IC50 at GRK2 (setting [3]) turned out to be 6.5 nM.

Take `Cn1c(CNc2cccc(C(=O)NC3c4ccccc4CC3O)c2)nnc1-c1ccncn1` (stereo not shown) [compound 56]: on GRK2 (setting [3]), the IC50 stood at 7.3 nM.

On to `Cn1c(CNc2cccc(C(=O)NCc3ccc4c(c3)CCN4)c2)nnc1-c1ccncn1` [compound 57], for which, on GRK2 (setting [3]), the IC50 turned out to be 9.4 nM.

Take `Cn1c(CNc2cccc(C(=O)NCc3ccc(-n4ccnn4)cc3)c2)nnc1-c1ccncn1` [compound 58]: the IC50 on GRK2 (setting [3]) came out at 9.5 nM.

As for `Cn1cccc1CNC(=O)c1cccc(NCc2nnc(-c3ccncn3)n2C)c1` [compound 59], the IC50 on GRK2 (setting [3]) turned out to be 9.5 nM.

As for `Cn1c(CNc2cccc(C(=O)NC3CCOc4cccnc43)c2)nnc1-c1ccncn1` (stereo not shown) [compound 60], the IC50 at GRK2 (setting [3]) came out at 9.6 nM.

With `Cc1nc(CNC(=O)c2cccc(NCc3nnc(-c4ccncn4)n3C)c2)cs1` [compound 61], the IC50 on GRK2 (setting [3]) was 9.8 nM.

As for `Cn1c(CNc2cccc(C(=O)NC(CO)c3cc(F)ccc3F)c2)nnc1-c1ccncn1` (stereo not shown) [compound 62], the IC50 on GRK2 (setting [3]) was found to be 10 nM.

For the molecule `Cc1csc(CNC(=O)c2cccc(NCc3nnc(-c4ccncn4)n3C)c2)n1` [drawing 283], the IC50 at GRK2 (Enzyme Assay A, ADPGlo (Example 8), read-out: A: Enzymatic GRK2: IC50 (nM) (Example 8)) stood at 100 nM.

Values taken from patent US20230009608A1, “GRK2 INHIBITORS AND USES THEREOF” (Cygnal Therapeutics, Inc., priority 2020, published 2023).
